Experimental findings from US8828993B2, “Psychotropic agents having glutamate NMDA activity” (Ramot At Tel-Aviv University Ltd., priority 2006, dated 2014) are described below.

Counter-ions that a name gives are not always drawn.

This series relates to ICR male mice. Briefly: Subchronic toxicity. The format is in vivo. The method, then: Subchronic toxicity was tested in ICR male mice. Animals (5 per group) received Compound 1 daily (10 and 20 mg/kg p.o). Animals were followed up for 7 days; weight, food intake and water intake were registered.
The mark [1] stands for this setting: ICR male mice, 10 and 20 mg/kg p.o. daily, 7 days.

Take `COC(=O)C(N)CN1CCN(C2=Nc3ccccc3Nc3sc(C)cc32)CC1` (stereo not drawn) [Compound 1, 2-amino-3-[4-(2-methyl-10H-thieno[2,3-b][1,5]benzodiazepin-4-yl)-piperazin-1-yl]-propionic acid, methyl ester hydrochloride salt]: under setting [1], the animal general behavior result is “no apparent difference”, the “body weight compared to control animals” value was “no difference”, the “food intake compared to control animals” value is given as “no difference” and the tolerability result is “well tolerated”. For the same compound, the “water intake compared to control animals” value under setting [1] was “no difference”. Also, the toxic effect entry (up to 20 mg/kg given for 7 days) is on record as “did not cause toxic effect”.
